Measurements reported in the NIST ThermoML archive (doi:10.1021/je5002686).
“And” between values parts separate entries of the source, which are not always exact repeats. Identical values can stand only once.

Conditions: Liquid, Vibrating tube method

CCOC(F)(C(F)(F)C(F)(F)C(F)(F)F)C(F)(C(F)(F)F)C(F)(F)F (centres undefined) [2-trifluoromethyl-3-ethoxydodecafluorohexane]
mass density
Conditions | 270 K | 290 K | 310 K | 330 K | 350 K
490 kPa | 1678.1 kg/m3 | 1637.9 kg/m3 | 1597.2 kg/m3 | 1555.1 kg/m3 | –
500 kPa | 1678.3 kg/m3 | 1638.1 kg/m3 and 1638.2 kg/m3 | 1597.2 kg/m3 and 1597.5 kg/m3 | 1555.2 kg/m3 and 1555 kg/m3 | 1511.4 kg/m3 and 1511.5 kg/m3
510 kPa | – | – | – | – | 1511.6 kg/m3
990 kPa | 1679.2 kg/m3 and 1679.3 kg/m3 | 1639.4 kg/m3 and 1639.5 kg/m3 | 1598.7 kg/m3 | – | 1513.6 kg/m3
1000 kPa | 1679.2 kg/m3 | 1639.2 kg/m3 | 1598.7 kg/m3 and 1599 kg/m3 | 1556.9 kg/m3 and 1556.7 kg/m3 | 1513.7 kg/m3 and 1513.5 kg/m3
1990 kPa | 1681.3 kg/m3 | 1641.9 kg/m3 | – | 1560.4 kg/m3 | 1517.8 kg/m3
2000 kPa | 1681.5 kg/m3 | 1641.7 kg/m3 and 1642 kg/m3 | 1601.6 kg/m3 and 1601.9 kg/m3 | 1560.2 kg/m3 and 1560.3 kg/m3 | 1517.6 kg/m3 and 1517.8 kg/m3
2990 kPa | – | 1644.4 kg/m3 | 1604.8 kg/m3 | 1563.6 kg/m3 | 1521.8 kg/m3
3000 kPa | 1683.4 kg/m3 | 1644.3 kg/m3 and 1644.1 kg/m3 | 1604.5 kg/m3 and 1604.4 kg/m3 | 1563.8 kg/m3 and 1563.7 kg/m3 | 1521.9 kg/m3 and 1521.7 kg/m3
3010 kPa | 1683.6 kg/m3 | – | – | – | –
3990 kPa | 1685.5 kg/m3 | 1646.7 kg/m3 and 1646.5 kg/m3 | 1607.3 kg/m3 | 1567 kg/m3 | –
4000 kPa | 1685.6 kg/m3 | 1646.8 kg/m3 | 1607.2 kg/m3 and 1607.6 kg/m3 | 1567.1 kg/m3 and 1566.9 kg/m3 | 1525.8 kg/m3 and 1525.6 kg/m3 and 1525.7 kg/m3
4990 kPa | 1687.5 kg/m3 | 1649.1 kg/m3 | 1609.9 kg/m3 | 1570.2 kg/m3 | 1529.4 kg/m3
5000 kPa | 1687.7 kg/m3 and 1687.5 kg/m3 | 1648.9 kg/m3 and 1649.2 kg/m3 | 1610 kg/m3 | 1570.3 kg/m3 and 1570.1 kg/m3 | 1529.6 kg/m3 and 1529.5 kg/m3
5010 kPa | – | – | 1610.3 kg/m3 | – | –
9990 kPa | 1697.3 kg/m3 | 1660.3 kg/m3 and 1660.1 kg/m3 and 1660.4 kg/m3 | – | 1585.3 kg/m3 | 1547.1 kg/m3
10000 kPa | 1697.3 kg/m3 and 1697.4 kg/m3 | – | 1622.9 kg/m3 and 1623.3 kg/m3 and 1623 kg/m3 | 1585.1 kg/m3 and 1585.2 kg/m3 | 1546.9 kg/m3 and 1547 kg/m3
14990 kPa | 1706.5 kg/m3 | – | – | – | –
15000 kPa | 1706.5 kg/m3 and 1706.6 kg/m3 | 1670.8 kg/m3 and 1670.6 kg/m3 | 1634.8 kg/m3 and 1635.2 kg/m3 and 1634.9 kg/m3 | 1598.9 kg/m3 and 1598.7 kg/m3 and 1598.8 kg/m3 | 1562.7 kg/m3 and 1562.5 kg/m3 and 1562.6 kg/m3
19990 kPa | – | 1680.5 kg/m3 and 1680.3 kg/m3 | 1645.8 kg/m3 and 1645.9 kg/m3 | 1611.3 kg/m3 and 1611.2 kg/m3 | 1576.5 kg/m3 and 1576.6 kg/m3
20000 kPa | 1715.1 kg/m3 and 1715.2 kg/m3 | 1680.6 kg/m3 | 1646.2 kg/m3 | 1611.2 kg/m3 | 1576.8 kg/m3
24990 kPa | 1723.4 kg/m3 | – | – | – | 1589.6 kg/m3 and 1589.4 kg/m3 and 1589.5 kg/m3
25000 kPa | 1723.3 kg/m3 and 1723.5 kg/m3 | 1689.7 kg/m3 and 1689.5 kg/m3 | 1656.1 kg/m3 | 1622.9 kg/m3 and 1622.6 kg/m3 and 1622.7 kg/m3 | –
25010 kPa | – | – | 1656.5 kg/m3 and 1656.2 kg/m3 | – | –
29990 kPa | 1731.3 kg/m3 | – | 1665.8 kg/m3 | 1633.5 kg/m3 | 1601.3 kg/m3
30000 kPa | 1731.1 kg/m3 and 1731.2 kg/m3 | 1698.4 kg/m3 | 1666.2 kg/m3 | 1633.4 kg/m3 and 1633.5 kg/m3 | 1601.5 kg/m3 and 1601.4 kg/m3
30010 kPa | – | 1698.3 kg/m3 | 1665.7 kg/m3 | – | –
34990 kPa | 1738.7 kg/m3 | 1706.7 kg/m3 | 1674.8 kg/m3 | 1643.6 kg/m3 and 1643.5 kg/m3 | 1612.3 kg/m3 and 1612.4 kg/m3
35000 kPa | 1738.6 kg/m3 and 1738.7 kg/m3 | 1706.5 kg/m3 | 1674.9 kg/m3 | 1643.4 kg/m3 | 1612.6 kg/m3
35010 kPa | – | 1706.7 kg/m3 | 1675.3 kg/m3 | – | –
40000 kPa | 1745.7 kg/m3 and 1745.8 kg/m3 and 1745.9 kg/m3 | 1714.6 kg/m3 and 1714.4 kg/m3 and 1714.5 kg/m3 | 1683.5 kg/m3 and 1683.9 kg/m3 and 1683.6 kg/m3 | 1653.1 kg/m3 and 1652.8 kg/m3 and 1652.9 kg/m3 | –
44990 kPa | 1752.7 kg/m3 | 1722.1 kg/m3 | – | 1661.8 kg/m3 and 1661.9 kg/m3 | –
45000 kPa | 1752.6 kg/m3 | 1721.9 kg/m3 and 1722.1 kg/m3 | 1691.7 kg/m3 and 1692.2 kg/m3 and 1691.8 kg/m3 | 1662 kg/m3 | –
49930 kPa | – | 1729.2 kg/m3 | – | – | –
49940 kPa | – | 1729.1 kg/m3 | – | – | –
49950 kPa | – | 1729 kg/m3 | – | – | –
49960 kPa | 1759.2 kg/m3 | – | – | – | –
49970 kPa | 1759.2 kg/m3 | – | 1699.6 kg/m3 | – | –
49980 kPa | – | – | – | 1670.4 kg/m3 | –
49990 kPa | – | – | – | 1670.3 kg/m3 | –
50000 kPa | 1759.4 kg/m3 | – | – | – | –
50010 kPa | – | – | 1699.6 kg/m3 | 1670.6 kg/m3 | –
50050 kPa | – | – | 1700.1 kg/m3 | – | –
